From US20260140098A1, “METHOD FOR TREATING PLASMA SAMPLE CONTAINING (7aS,2'S)-2-OXO-CLOPIDOGREL AND METHOD FOR DETERMINING THE SAME” (CHENGDU SHIBEIKANG BIOMEDICAL TECHNOLOGY CO., LTD., priority 2021, published 2026)
Where two headings read alike, the source gives them in different places.

Assay: Stability of (7aS,2′S)-2-oxo-clopidogrel in plasma at −80° C., screening of reducing agent type (Example 5)
Assay type: in vitro ADME
Conditions: for recovery at 0 day, 0.1 ng/mL / recovery at 10 day, 0.1 ng/mL / recovery at 30 day, 0.1 ng/mL / recovery at 60 day, 0.1 ng/mL: theoretical 0.1 ng/mL; for recovery at 0 day, 0.1 ng/mL / recovery at 0 day, 12 ng/mL: day 0, read-out: Recovery rate; for recovery at 10 day, 0.1 ng/mL / recovery at 10 day, 12 ng/mL: day 10, read-out: Recovery rate; for recovery at 30 day, 0.1 ng/mL / recovery at 30 day, 12 ng/mL: day 30, read-out: Recovery rate; for recovery at 60 day, 0.1 ng/mL / recovery at 60 day, 12 ng/mL: day 60, read-out: Recovery rate; for recovery at 0 day, 12 ng/mL / recovery at 10 day, 12 ng/mL / recovery at 30 day, 12 ng/mL / recovery at 60 day, 12 ng/mL: theoretical 12.0 ng/mL
Method: S2. Plasma sample pre-treatment: taking 100 μl of the plasma, adding 5 μl of an internal standard working solution and 300 μl of acetonitrile respectively; after vortex mixing, centrifuging at 2-8° C. and 10,000 r/min for 10 min, and collecting the supernatant for later use.
S3. LC-MS/MS analysis: injecting 10 μl of the supernatant prepared from step S2 for determination, where the liquid chromatography conditions are: • the chromatographic column is Kinetex® 1.7 μm C18 100 A 100×2.1 mm; the column temperature is 40° C.; the mobile phase is acetonitrile-0.2% aqueous formic acid solution with a flow rate of 0.2 ml/min; and a gradient elution is carried out as specified in the table below:
ESI ion source, positive ion detection in multiple reaction monitoring mode (MRM); the quantitatively analyzed ions (7aS,2′S)-2-oxo-clopidogrel: m/z 338.100→155.000, IS: m/z 341.100→158.000, a capillary voltage of 4.0 KV, a cone voltage of 25 V, a desolvation gas temperature of 400° C. and a source temperature of 150° C. The optimal collision energy is 20 eV.
Blank plasma was taken and different antioxidants (DTT, TCEP, ME) were added to prepare plasma containing an antioxidant at a concentration of 100 mg/ml. Subsequently, standard series solution of (7aS,2′S)-2-oxo-clopidogrel was added separately to prepare quality control samples with two concentrations of (7aS,2′S)-2-oxo-clopidogrel (0.1 and 12.0 ng/ml), 3 samples for each concentration. They were placed in a refrigerator at −80° C., and the plasma samples at different placing time points were taken to examine the stability by pre-treating the plasma samples according to the method of S2 of Example 1, followed by LC/MS/MS determination according to the method of S3.

[1] = blank plasma containing DTT 100 mg/ml, DTT 100 mg/ml
[2] = blank plasma containing ME 100 mg/ml, ME 100 mg/ml
[3] = blank plasma containing TCEP 100 mg/ml, TCEP 100 mg/ml

recovery at 0 day, 0.1 ng/mL [1]: 102%
recovery at 10 day, 0.1 ng/mL [1]: 103%
recovery at 30 day, 0.1 ng/mL [1]: 95.5%
recovery at 0 day, 0.1 ng/mL [2]: 102%
recovery at 10 day, 0.1 ng/mL [2]: 101%
recovery at 30 day, 0.1 ng/mL [2]: 91.5%
recovery at 60 day, 0.1 ng/mL [2]: 86.6%
recovery at 0 day, 12 ng/mL [2]: 101%
recovery at 10 day, 12 ng/mL [2]: 99.2%
recovery at 30 day, 12 ng/mL [2]: 96.5%
recovery at 60 day, 12 ng/mL [2]: 87.9%
recovery at 60 day, 0.1 ng/mL [3]: 101%
recovery at 0 day, 12 ng/mL [3]: 101%
recovery at 10 day, 12 ng/mL [3]: 100%
recovery at 30 day, 12 ng/mL [3]: 102%
recovery at 60 day, 12 ng/mL [3]: 101%
recovery at 60 day, 0.1 ng/mL (plasma, DTT 100 mg/ml): 89.9%
recovery at 0 day, 12 ng/mL (plasma, DTT 100 mg/ml): 101%
recovery at 10 day, 12 ng/mL (plasma, DTT 100 mg/ml): 100%
recovery at 30 day, 12 ng/mL (plasma, DTT 100 mg/ml): 98.9%
recovery at 60 day, 12 ng/mL (plasma, DTT 100 mg/ml): 92.4%
recovery at 0 day, 0.1 ng/mL (plasma, TCEP 100 mg/ml): 102%
recovery at 10 day, 0.1 ng/mL (plasma, TCEP 100 mg/ml): 105%
recovery at 30 day, 0.1 ng/mL (plasma, TCEP 100 mg/ml): 99.3%
SMILES: COC(=O)[C@H](c1ccccc1Cl)N1CC[C@@H]2SC(=O)C=C2C1 [(7aS,2′S)-2-oxo-clopidogrel, methyl(S)-2-(2-chlorophenyl)-2-((S)-2-oxo-2,6,7,7a-tetrahydrothieno[3,2-c]pyridin-5 (4H)-yl)acetate]
Stability of plasma samples (in words) (with TCEP compared with DTT and ME, 100 mg/ml): better than that of the plasma samples with DTT and ME
